Measured values taken from patent publication US12077555B2, “STAT degraders and uses thereof” (Kymera Therapeutics, Inc., priority 2019, dated 2024).

Tests used:
STAT3 [1] = biological target: T1, STAT3 (Homo sapiens, UniProt P40763); experiment: Quantitation of STAT3 degradation in A549 cells by Western blot; assay type: cell-based; parameters: expressed in transfected cells; host or cells: A549; conditions: read-out: A549 DC50, 24 hours, tested up to 30 μM or 10 μM
In short: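 A549 cells treated 24 h at 37° C with compound at 30, 10, 3, 1, 0.3 μM or DMSO; RIPA lysates analysed by SDS-PAGE/Western blot for total STAT3, β-actin as loading control, LI-COR fluorescence read-out. DC50 derived by sigmoidal fit of dose-dependent degradation.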

SU-DHL-1 tumor cells = experiment: Xenograph tumor study, SU-DHL-1; assay type: in vivo, NOD SCID mice; conditions: SUDHL-1 xenograph, 2.5-30 mg/kg, 2 days on/5 days off
Procedure: Animals: 50 6-8 week old female NOD SCID mice weighing 18 to 20 grams. 25 mice were used in each study.
Method for Tumor Inoculation: Each mouse was inoculated subcutaneously with SU-DHL-1 tumor cells (1×107+Matrigel) or SUP-M2 tumor cells (5×106+Matrigel) in 0.1 ml of RPMI1640 medium supplemented with 10% FBS, 100 U/ml penicillin and […] streptomycin for tumor development. Mice were then assigned to groups such that the mean tumor volume was the same for each treatment group and time point. […] Vehicle was 25% HP-β-CD in water adjusted to pH 7.4.
Measurement Parameters: Study animals were monitored not only for tumor growth but also behavior such as mobility, food and water consumption (by cage side checking only), body weight (BW), eye/hair matting and any other abnormal effect. Any mortality and/or abnormal clinical signs was recorded. Sponsor was notified immediately if abnormal clinical signs, or if tolerability issues were observed. Body weights of all animals were measured and recorded twice per week. The measurement of tumor size was conducted twice weekly with a caliper and recorded. The tumor volume (mm3) was estimated using the formula: TV=a×b2/2, where “a” and “b” are long and short diameters of a tumor, respectively.

STAT3 [2] = biological target: T1, STAT3; experiment: STAT3 HiBiT degradation assay in transfected A549 cells; assay type: cell-based; parameters: expressed in transfected cells; host or cells: A549; conditions: A549, 24 h; read-out: STAT3 HiBiT A549 degradation 24 h: Average external-Abs DC50
In short: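 Transfected A549 cells (~2000/well) plated 24 h, then treated 24 h at 37 °C, 5% CO2 with a 3-fold, 10-point compound dilution. HiBiT lytic luminescence read after 10 min at room temperature; remaining STAT3 normalized to negative and positive controls, four-parameter fit. DC50 binned A <0.01, B 0.01–0.1, C 0.1–1.0, D >1.0 µM.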

T1 sequence (P40763 whole entry): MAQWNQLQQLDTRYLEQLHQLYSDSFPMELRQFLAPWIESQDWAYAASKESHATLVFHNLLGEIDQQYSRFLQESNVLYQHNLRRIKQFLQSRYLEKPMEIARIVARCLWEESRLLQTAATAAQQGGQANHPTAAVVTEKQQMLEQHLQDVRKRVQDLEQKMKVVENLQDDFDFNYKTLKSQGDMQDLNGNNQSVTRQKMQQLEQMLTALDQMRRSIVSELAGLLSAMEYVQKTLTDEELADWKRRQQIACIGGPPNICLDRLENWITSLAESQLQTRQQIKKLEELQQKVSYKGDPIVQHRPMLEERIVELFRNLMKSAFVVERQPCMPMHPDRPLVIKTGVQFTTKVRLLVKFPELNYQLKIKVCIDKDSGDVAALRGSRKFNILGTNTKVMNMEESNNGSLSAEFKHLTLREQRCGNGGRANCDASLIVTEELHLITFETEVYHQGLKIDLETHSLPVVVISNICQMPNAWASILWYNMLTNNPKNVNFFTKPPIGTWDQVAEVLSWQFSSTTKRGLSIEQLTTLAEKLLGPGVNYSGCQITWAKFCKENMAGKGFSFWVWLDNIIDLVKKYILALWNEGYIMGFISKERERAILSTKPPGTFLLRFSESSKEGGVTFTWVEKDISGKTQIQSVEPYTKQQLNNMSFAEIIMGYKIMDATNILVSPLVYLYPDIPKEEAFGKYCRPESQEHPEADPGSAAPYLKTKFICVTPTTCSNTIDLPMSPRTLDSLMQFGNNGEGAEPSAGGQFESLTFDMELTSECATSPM

| SMILES | DC50 (STAT3 [1]) [nM] | tumor volume, 5 days (SU-DHL-1 tumor cells; IP) | tumor volume, 10 days (SU-DHL-1 tumor cells; IP) | tumor volume, 15 days (SU-DHL-1 tumor cells; IP) | tumor volume, 20 days (SU-DHL-1 tumor cells; IP) | DC50 (STAT3 [2]) [nM] | tumor volume, 5 days (SU-DHL-1 tumor cells; IV) | tumor volume, 10 days (SU-DHL-1 tumor cells; IV) | tumor volume, 15 days (SU-DHL-1 tumor cells; IV) | tumor volume, 20 days (SU-DHL-1 tumor cells; IV) |
| --- | --- | --- | --- | --- | --- | --- | --- | --- | --- | --- |
| C/C(=C\C(=O)N[C@H]1CN(C(=O)CCCCCC#Cc2cccc3c2CN(C2CCC(=O)NC2=O)C3=O)CC[C@H]2CC[C@@H](C(=O)N[C@@H](CCC(N)=O)C(=O)NC(c3ccccc3)c3ccccc3)N2C1=O)c1ccc(C(F)(F)P(=O)(O)O)cc1 (stereo partly drawn) [Compound I-115, ((4-((E)-4-(((5S,8S,10aR)-8-(((S)-5-amino-1-(benzhydrylamino)-1,5-dioxopentan-2-yl)carbamoyl)-3-(8-(2-(2,6-dioxopiperidin-3-yl)-1-oxoisoindolin-4-yl)oct-7-ynoyl)-6-oxodecahydropyrrolo[1,2-a][1,5]diazocin-5-yl)amino)-4-oxobut-2-en-2-yl)phenyl)difluoromethyl)phosphonic acid] | < 30000 | – | – | – | – | – | – | – | – | – |
| Cc1ncsc1-c1ccc(CNC(=O)[C@@H]2C[C@@H](O)CN2C(=O)[C@@H](NC(=O)CCCCCc2ccc(CO[C@H](C)[C@H](CCC(N)=O)NC(=O)[C@@H]3Cc4cccc5c4N3C(=O)[C@@H](NC(=O)c3cc4cc(C(=O)P(=O)(O)O)ccc4[nH]3)CC5)cc2)C(C)(C)C)cc1 [Compound I-117, (2-(((3S,6S)-6-(((2R,3S)-6-amino-2-((4-(6-(((S)-1-((2S,4R)-4-hydroxy-2-((4-(4-methylthiazol-5-yl)benzyl)carbamoyl)pyrrolidin-1-yl)-3,3-dimethyl-1-oxobutan-2-yl)amino)-6-oxohexyl)benzyl)oxy)-6-oxohexan-3-yl)carbamoyl)-4-oxo-1,2,3,4,6,7-hexahydroazepino[3,2,1-hi]indol-3-yl)carbamoyl)-1H-indole-5-carbonyl)phosphonic acid] | < 30000 | – | – | – | – | – | – | – | – | – |
| C[C@@H](OCc1ccc(CCCCCCc2ccc3c(c2)n(C)c(=O)n3C2CCC(=O)NC2=O)cc1)[C@H](CCC(N)=O)NC(=O)[C@@H]1Cc2cccc3c2N1C(=O)[C@@H](NC(=O)c1cc2cc(C(=O)P(=O)(O)O)ccc2[nH]1)CC3 (stereo partly drawn) [Compound I-118, diammonium 2-[[(2S,11S)-2-[[(3S,4R)-1-carbamoyl-4-[(4-[6-[1-(2,6-dioxopiperidin-3-yl)-3-methyl-2-oxo-1,3-benzodiazol-5-yl]hexyl]phenyl)methoxy]pentan-3-yl]carbamoyl]-12-oxo-1-azatricyclo[6.4.1.0^[4,13]]trideca-4(13),5,7-trien-11-yl]carbamoyl]-1H-indole-5-carbonylphosphonate] | > 30000 | – | – | – | – | – | – | – | – | – |
| Cn1c(=O)n(C2CCC(=O)NC2=O)c2ccc(C[C@H]3CC[C@@H](CC(=O)N4CC[C@H]5CC[C@@H](C(=O)N[C@@H](CCC(N)=O)C(=O)NCc6ccc(S(C)(=O)=O)cc6)N5C(=O)[C@@H](NC(=O)c5cc6cc(C(=O)P(=O)(O)O)ccc6[nH]5)C4)CC3)cc21 (stereo partly drawn) [Compound I-195, 2-[[(5S,8S,10aR)-8-[[(1S)-3-carbamoyl-1-[[(4-methanesulfonylphenyl)methyl]carbamoyl]propyl]carbamoyl]-6-oxo-3-[2-[(1S,4S)-4-[[1-(2,6-dioxopiperidin-3-yl)-3-methyl-2-oxo-1,3-benzodiazol-5-yl]methyl]cyclohexyl]acetyl]-octahydropyrrolo[1,2-a][1,5]diazocin-5-yl]carbamoyl]-1H-indole-5-carbonylphosphonic acid] | – | A (A<500 mm^3) | A (A<500 mm^3) | A (A<500 mm^3) | A (A<500 mm^3) | 10 to 100 | – | – | – | – |
| CC(C)c1ccc(CNC(=O)[C@H](CCC(N)=O)NC(=O)[C@@H]2CC[C@@H]3CCN(C(=O)C[C@H]4CC[C@@H](Cc5ccc6c(c5)n(C)c(=O)n6C5CCC(=O)NC5=O)CC4)C[C@H](NC(=O)c4cc5cc(C(=O)P(=O)(O)O)ccc5[nH]4)C(=O)N32)cc1 (stereo partly drawn) [Compound I-196, 2-[[(5S,8S,10aR)-8-[[(1S)-3-carbamoyl-1-[[(4-isopropylphenyl)methyl]carbamoyl]propyl]carbamoyl]-6-oxo-3-[2-[(1S,4S)-4-[[1-(2,6-dioxopiperidin-3-yl)-3-methyl-2-oxo-1,3-benzodiazol-5-yl]methyl]cyclohexyl]acetyl]-octahydropyrrolo[1,2-a][1,5]diazocin-5-yl]carbamoyl]-1H-indole-5-carbonylphosphonic acid] | – | A (A<500 mm^3) | A (A<500 mm^3) | A (A<500 mm^3) | A (A<500 mm^3) | 10 to 100 | – | – | – | – |
| CC(=O)N1CC[C@H]2CC[C@@H](C(=O)N[C@@H](CCC(N)=O)COc3cccc(CCCCC(=O)N[C@H](C(=O)N4C[C@H](O)C[C@H]4C(=O)N[C@@H](C)c4ccc(-c5scnc5C)cc4)C(C)(C)C)c3Cl)N2C(=O)[C@@H](NC(=O)c2cc3cc(C(=O)P(=O)(O)O)ccc3[nH]2)C1 [Compound I-233, diammonium 2-[[(5S,8S,10aR)-3-acetyl-8-[[(2S)-4-carbamoyl-1-[2-chloro-3-(4-[[(2S)-1-[(2S,4R)-4-hydroxy-2-[[(1S)-1-[4-(4-methyl-1,3-thiazol-5-yl)phenyl]ethyl]carbamoyl]pyrrolidin-1-yl]-3,3-dimethyl-1-oxobutan-2-yl]carbamoyl]butyl)phenoxy]butan-2-yl]carbamoyl]-6-oxo-octahydropyrrolo[l,2-a][1,5]diazocin-5-yl]carbamoyl]-1H-indole-5-carbonylphosphonate] | – | – | – | – | – | < 10 | A (A<500 mm^3) | A (A<500 mm^3) | A (A<500 mm^3) | A (A<500 mm^3) |
| CC(=O)N1CC[C@H]2CC[C@@H](C(=O)N[C@@H](CCC(N)=O)COc3cccc(CCCC(=O)N[C@H](C(=O)N4C[C@H](O)C[C@H]4C(=O)N[C@@H](C)c4ccc(-c5scnc5C)cc4)C(C)(C)C)c3Cl)N2C(=O)[C@@H](NC(=O)c2cc3cc(C(=O)P(=O)(O)O)ccc3[nH]2)C1 [Compound I-241, diammonium 2-[[(5S,8S,10aR)-3-acetyl-8-[[(2S)-4-carbamoyl-1-[2-chloro-3-(3-[[(2S)-1-[(2S,4R)-4-hydroxy-2-[[(1S)-1-[4-(4-methyl-1,3-thiazol-5-yl)phenyl]ethyl]carbamoyl]pyrrolidin-1-yl]-3,3-dimethyl-1-oxobutan-2-yl]carbamoyl]propyl)henoxy]butan-2-yl]carbamoyl]-6-oxo-octahydropyrrolo[1,2-a][1,5]diazocin-5-yl]carbamoyl]-1H-indole-5-carbonylphosphonate] | – | – | – | – | – | < 10 | A (A<500 mm^3) | A (A<500 mm^3) | A (A<500 mm^3) | A (A<500 mm^3) |
| Cc1ncsc1-c1ccc([C@H](C)NC(=O)[C@@H]2C[C@@H](O)CN2C(=O)[C@@H](NC(=O)CCCc2cccc(OC[C@H](CCC(N)=O)NC(=O)[C@@H]3Cc4cccc5c4N3C(=O)[C@@H](NC(=O)c3cc4cc(C(=O)P(=O)(O)O)ccc4[nH]3)CC5)c2F)C(C)(C)C)cc1 [Compound I-261, 2-[[(2S,11S)-2-[[(2S)-4-carbamoyl-1-[2-fluoro-3-(3-[[(2S)-1-[(2S,4R)-4-hydroxy-2-[[(1S)-1-[4-(4-methyl-1,3-thiazol-5-yl)phenyl]ethyl]carbamoyl]pyrrolidin-1-yl]-3,3-dimethyl-1-oxobutan-2-yl]carbamoyl]propyl)phenoxy]butan-2-yl]carbamoyl]-12-oxo-1-azatricyclo[6.4.1.0^[4,13]]trideca-4(13),5,7-trien-11-yl]carbamoyl]-1H-indole-5-carbonylphosphonic acid] | – | A (A<500 mm^3) | A (A<500 mm^3) | A (A<500 mm^3) | A (A<500 mm^3) | < 10 | – | – | – | – |
